# Assay results reported in US7659251B2, “Ligand for G-protein coupled receptor FPRL2” (priority 2004, dated 2010).
# Key:
# [1] = tested on: ERK1/2 MAP-kinases; test: ERK1/2 activation by Western blotting in FPRL2-expressing CHO-K1 cells; assay type: cell-based, human
# Method: The cAMP concentrations were determined using a homogeneous time-resolved fluorescence (HTRF) kit (Cis Bio International). Briefly, cells were detached, resuspended in Krebs Ringer Hepes buffer containing 1 mM 3-Isobutyl-1-methylxanthine, and submitted to 10 μM forskolin, alone or together with increasing concentrations of agonists for 30 min at room temperature. The reaction was stopped by the successive addition of cAMP-XL665 and anti-cAMP cryptate diluted in lysis buffer. The plates were incubated for 60 min at room temperature and read on a Rubystar fluorimeter (BMG). […] A calibration curve was obtained by plotting delta F % versus cAMP concentrations. ERK1/2 activation was assayed by Western blotting, using an anti-phospho-p42/44 monoclonal antibody (E10, Cell Signaling Technology) as described (46). The aequorin-based assay was performed with or without overnight pretreatment with 100 ng/ml Pertussis toxin. […] For FPRL2 polymorphism analysis, HEK cells were transiently transfected with empty and wild-type or Asp338H is FPRL2-containing pcdna vector using calcium phosphate method. Cells were recovered 48 hours later and used for FACS or cAMP experiments.
# [2] = molecular target: T1, FPRL2 (Homo sapiens, UniProt P25089); test: Aequorine assay on human FPRL2 expressing cells (Example 9); assay type: cell-based; parameters: expressed in transfected cells; host or cells: CHO-K1 (with or without Galpha16 and apoaequorin); settings: peptides 2.5 μM to 0.4 nM, Mab 500 ug/ml to 5 ug/ml; FIG. 15
# T1 sequence (P25089 1-353): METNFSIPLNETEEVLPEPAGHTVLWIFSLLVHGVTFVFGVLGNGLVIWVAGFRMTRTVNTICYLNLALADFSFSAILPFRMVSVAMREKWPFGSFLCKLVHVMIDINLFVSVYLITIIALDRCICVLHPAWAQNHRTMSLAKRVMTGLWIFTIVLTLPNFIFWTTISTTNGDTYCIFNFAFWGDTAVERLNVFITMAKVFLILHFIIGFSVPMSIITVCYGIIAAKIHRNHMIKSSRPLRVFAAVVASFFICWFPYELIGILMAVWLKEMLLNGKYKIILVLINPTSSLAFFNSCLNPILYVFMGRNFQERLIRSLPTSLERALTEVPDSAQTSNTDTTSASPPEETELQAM
# Method: Functional responses were analyzed by recording the luminescence of aequorine in human FPRL2 and FPRL1 expressing cells following the addition of agonists or purified monoclonal antibodies.
# In brief, cells were collected from plates with PBS containing 5 mM EDTA, pelleted, resuspend at 5×10^6 cells/ml in DMEM/F-12 medium containing 0.1% bovine serum albumin, incubated with 5 μM coelenterazine H (molecular probes, Inc. Eugene, Oreg.) for 4 h at room temperature and diluted in DMEM/F-12 medium at a concentration of 5×10^5 cells/ml. Cells where then mixed in an 96 wells plate with the ligands or purified monoclonal antibodies. The light emission was recorded over 60 sec using a microlumat Luminometer (EG&G Berthold, microplate luminometer LB 96V).
# Each data point is in duplicate. […] Human FPRL1 expressing cells were used as negative control to Mab. Functionality of these cells has been control with Humanin.
# [3] = tested on: monocyte-derived DCs; test: Ca2+ mobilization assay on monocyte-derived DCs; assay type: cell-based, human; settings: dose-dependent; FIG. 13A
# Method: Monocyte-derived DCs were generated either from the adherent fraction of PBMCs cultured with GM-CSF (800 U/ml) and […] (500 U/ml), or from Percoll-purified monocytes cultured with GM-CSF (50 ng/ml) and IL-13 (20 ng/ml), for 5 to 7 days. For Ca^2+ mobilization assay, monocytes were obtained by negative selection with the Monocyte Isolation Kit II (Miltenyi Biotec). […] For Ca^2+ mobilization assays, monocyte-derived DCs or monocytes (5×10^5 cells/ml in HBSS without phenol red but containing 0.1% BSA and 1 mM Probenecid (Sigma)) were loaded with 4 μM Fluo 4 (Molecular Probes) for 1 h at 20° C. in the dark. The loaded cells were washed twice, resuspended at 1 to 2×10^6 cells/ml and 50 μl of cell suspension was distributed per well of a 96 well plate (Viewplate, Packard Bioscience). Reading was performed in a Fluostar fluorimeter (BMG) at 25° C.: 50 μl of ligand-containing medium was injected, and the fluorescence at 520 nm was recorded every second for 1 to 3 min. Each condition was performed in triplicate, the mean fluorescence for each time point was calculated, and the curves were normalized by subtracting the mean value of the five measurements preceding the injection.
# [4] = molecular target: T2, FPR (Homo sapiens, UniProt P21462, E346A/V101L); test: Competition binding on FPR-expressing CHO-K1 cells, tracer [125I]-WKYMVm
# T2 construct: expressed in transfected cells; host or cells: CHO-K1 (with or without Galpha16 and apoaequorin)
# T2 sequence (P21462 1-350 V101L/E346A): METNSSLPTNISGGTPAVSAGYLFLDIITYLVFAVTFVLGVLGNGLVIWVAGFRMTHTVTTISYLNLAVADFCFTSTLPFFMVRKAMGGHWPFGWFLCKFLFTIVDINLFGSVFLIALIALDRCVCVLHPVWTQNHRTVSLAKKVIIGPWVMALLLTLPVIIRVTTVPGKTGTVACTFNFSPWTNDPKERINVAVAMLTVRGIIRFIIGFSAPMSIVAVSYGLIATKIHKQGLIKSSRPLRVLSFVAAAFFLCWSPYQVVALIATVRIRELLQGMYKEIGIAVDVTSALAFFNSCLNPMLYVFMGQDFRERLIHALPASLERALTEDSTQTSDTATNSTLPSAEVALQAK
# Method: FPRL2, FPRL1 and FPR-expressing CHO-K1 cells were plated in 24 wells plates (200,000 cells per well for FPRL2, and 100,000 cells per well for the two other receptors). The next day, the cells were washed twice with a KRH buffer containing 280 mM saccharose and, for FPRL1 and FPR, 0.1 % NaN3. […] Cells were washed twice with ice cold buffer, total radioactivity was recovered with 1 M […] and counted in a gamma counter for […]
# [5] = molecular target: T2, FPR; test: Aequorin-based assay on CHO-K1 cells expressing FPR; assay type: cell-based
# Text: The human coding sequences (accession numbers AC005946, M84562 and M60626, respectively) were amplified by PCR from human genomic DNA, cloned into the pcDNA3 (Invitrogen) and pEFIN3 (Euroscreen) vectors and sequenced. The pEFIN3 constructs were transfected, using Fugene 6, into CHO-K1 cells, expressing or not Gα16 and apoaequorin. G418-resistant clones were characterized for receptor expression by Northern blotting. […] Results were expressed as relative light units (RLU) or as the percentage of the response to 20 μM ATP.
smiles,measurement,setting,value
CC[C@H](C)[C@H](NC(=O)[C@H](CCSC)NC(=O)CNC(=O)[C@H](CC(C)C)NC(=O)[C@H](CCSC)NC(C)=O)C(=O)N[C@@H](CCCCN)C(=O)N[C@@H](CC(N)=O)C(=O)N[C@@H](CO)C(=O)N[C@@H](CC(C)C)C(=O)N[C@@H](Cc1ccccc1)C(=O)NCC(=O)N[C@@H](CO)C(=O)N[C@H](C(=O)N[C@@H](CCC(=O)O)C(=O)N[C@H](C(=O)N[C@@H](Cc1c[nH]c2ccccc12)C(=O)N1CCC[C@H]1C(=O)N[C@@H](Cc1c[nH]c2ccccc12)C(=O)N[C@@H](CCC(N)=O)C(=O)N[C@H](C(=O)N[C@@H](CC(C)C)C(=O)O)C(C)C)[C@@H](C)O)C(C)C [F2L],time of maximal ERK1/2 phosphorylation,"[1]; 100 nM F2L, FIG. 11J",15 min
same,concentrations inducing phosphorylation of the ERK1/2 MAP-kinases,"[1]; stimulation for 10 min, FIG. 11I",picomolar concentrations
same,activation of human FPRL2 expressing cells,[2],activates
same,intracellular Ca2+ flux in immature DCs,[3],promoted intracellular Ca^2+ flux
same,IC50,"[4]; FPR, −Log of IC50 in Mol/L, mean ± s.e.m., read-out: pIC50 (binding assay) (converted)",> 1 µM
same,competition for FPR binding,"[4]; up to concentrations of 3 μM, tracer [125I]WKYMVm",no competition
same,activation of FPR,[5]; FIG. 6,not able to activate
same,EC50,"[5]; FPR, −Log of EC50 in Mol/L, mean ± s.e.m., read-out: pEC50 (sequorin assay) (converted)",> 1 µM
same,activity in the aequorin assay on FPR,[5]; up to 5 μM,no activity was detected
